Reference: ChEMBL document CHEMBL3877258, “Targeting cytochrome P450 (CYP) 1B1 with steroid derivatives” (Bioorg Med Chem Lett, 2016)

Target: T1, Cytochrome P450 1B1 (Homo sapiens, UniProt Q16678)
T1 sequence (Q16678 whole entry): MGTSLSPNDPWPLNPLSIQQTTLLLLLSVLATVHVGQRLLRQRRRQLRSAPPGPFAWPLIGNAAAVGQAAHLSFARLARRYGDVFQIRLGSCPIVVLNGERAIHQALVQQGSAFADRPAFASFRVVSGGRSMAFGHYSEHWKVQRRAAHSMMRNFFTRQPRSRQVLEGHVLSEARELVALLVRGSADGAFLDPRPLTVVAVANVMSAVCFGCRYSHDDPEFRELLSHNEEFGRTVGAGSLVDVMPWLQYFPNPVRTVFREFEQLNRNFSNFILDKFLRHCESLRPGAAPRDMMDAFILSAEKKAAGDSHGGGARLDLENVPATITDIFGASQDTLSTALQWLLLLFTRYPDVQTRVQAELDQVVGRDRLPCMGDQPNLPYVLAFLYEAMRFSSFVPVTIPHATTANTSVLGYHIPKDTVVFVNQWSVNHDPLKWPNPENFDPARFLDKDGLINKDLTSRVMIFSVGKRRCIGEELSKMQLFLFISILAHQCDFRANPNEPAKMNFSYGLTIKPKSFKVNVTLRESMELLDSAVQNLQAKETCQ
Experiment: Inhibition of recombinant human CYP1B1 expressed in bacterial microsomes co-expressing P450 reductase using 7-ethyl-O-resorufin as substrate after 45 mins in presence of NADPH by fluorescence assay
Details: not given

Work on `C[C@]12CC[C@@H]3c4ccc(S)cc4CC[C@H]3[C@@H]1CCC2=O` yielded an IC50 of 3.4 µM.

Target: T2, CYP1B1 (Homo sapiens, UniProt Q16678)
T2 sequence (Q16678 whole entry): T1 sequence (Q16678 whole entry)
Experiment: Inhibition of recombinant human CYP1B1 expressed in bacterial microsomes co-expressing P450 reductase at 3 uM using 7-ethyl-O-resorufin as substrate after 45 mins in presence of NADPH by fluorescence assay relative to control
Details: probe 7-ethyl-O-resorufin

Point of comparison: `C[C@]12CC[C@@H]3c4ccc(O)cc4CC[C@H]3[C@@H]1C[C@H](CCCNC(=O)C(Cc1ccccc1)NC(=O)Cc1ccccc1)[C@@H]2O` (stereo not given in full), inhibition at 0.75 h, 3 µM 7.7%. Against it:
- COc1ccc2c(c1)CC[C@@H]1[C@@H]2CC[C@]2(C)C(=O)CC[C@@H]12 — lower, 2%
- C[C@]12CC[C@@H]3c4cc(F)c(O)cc4CC[C@H]3[C@@H]1CC[C@@H]2O — higher, 28.7%
- C[C@]12CC[C@@H]3c4ccc(O)c(F)c4CC[C@H]3[C@@H]1CC[C@@H]2O — lower, 7.5%
- C[C@]12CC[C@@H]3c4ccc(O)cc4CC[C@H]3[C@@H]1C[C@@H](CCCBr)[C@@H]2O — lower, 2%
- C[C@]12CC[C@@H]3c4cc(Br)c(O)c(Br)c4CC[C@H]3[C@@H]1CC[C@@H]2O — lower, 1%
- C[C@]12CC[C@@H]3c4ccccc4CC[C@H]3[C@@H]1CCC2=O — higher, 11.3%
- C[C@]12CC[C@@H]3c4cc(Br)c(O)cc4CC[C@H]3[C@@H]1CC[C@@H]2O — higher, 22.6%
- C[C@]12CC[C@@H]3c4ccc(OC(N)=O)cc4CC[C@H]3[C@@H]1CCC2=O — higher, 9.9%
- COc1cc2c(cc1OS(N)(=O)=O)CC[C@@H]1[C@@H]2CC[C@]2(C)[C@@H](O)CC[C@@H]12 — higher, 23.8%
- C[C@]12CC[C@@H]3c4ccc(O)c(Br)c4CC[C@H]3[C@@H]1CC[C@@H]2O — higher, 29%
- Cc1cc2c(cc1O)CC[C@@H]1[C@@H]2CC[C@]2(C)[C@@H](O)CC[C@@H]12 — lower, 1%
- C[C@]12CC[C@@H]3c4ccc(OS(=O)(=O)O)cc4CC[C@H]3[C@@H]1CC[C@@H]2O — lower, 0.9%
- COc1cc2c(cc1OS(N)(=O)=O)CC[C@@H]1[C@@H]2CC[C@@]2(C)[C@H]1CC[C@@]2(O)Cc1ccccc1 — the same, 7.7%
- C#C[C@]1(O)CC[C@H]2[C@@H]3CCc4c(ccc(O)c4Br)[C@H]3CC[C@@]21C — lower, 7.5%
- C[C@]12CC[C@@H]3c4ccc(C5CO5)cc4CC[C@H]3[C@@H]1CCC2=O (stereo not given in full) — higher, 12.4%
- CCCCCCCN(C=O)[C@H]1CC[C@H]2[C@@H]3CCc4cc(O)ccc4[C@H]3CC[C@]12C — lower, 0%
- C[C@]12CC[C@@H]3c4ccc(O)cc4C(=O)C[C@H]3[C@@H]1CC[C@@H]2O — higher, 9.7%
- C[C@]12CC[C@@H]3c4ccc(OS(N)(=O)=O)cc4CC[C@H]3[C@@H]1CC[C@@]2(O)CN1CCN(C(=O)[C@H](Cc2ccccc2)NC(=O)CCC2CCCC2)CC1 — higher, 14.9%
- Cc1ccc(S(=O)(=O)/N=S(\C)c2ccc3c(c2)CC[C@@H]2[C@@H]3CC[C@]3(C)C(=O)CC[C@@H]23)cc1 (stereo not given in full) — lower, 0.1%
- C[C@]12CC[C@@H]3c4ccc(OS(N)(=O)=O)cc4CC[C@H]3[C@@H]1C[C@H](CCCNC(=O)C(Cc1ccccc1)NC(=O)Cc1ccccc1)[C@@H]2O (stereo not given in full) — higher, 22.8%
- C[C@]12CC[C@@H]3c4ccc([N+](C)(C)[O-])cc4CC[C@H]3[C@@H]1CCC2=O — higher, 36.6%
- C[C@]12CC[C@@H]3c4cc([N+](=O)[O-])c(O)c([N+](=O)[O-])c4CC[C@H]3[C@@H]1CC[C@@H]2O — higher, 11.4%
- C[C@]12CC[C@@H]3c4ccccc4C(=O)C[C@H]3[C@@H]1CCC2=O — higher, 16%
- COc1cc2c(cc1O)CC[C@@H]1[C@@H]2CC[C@@]2(C)[C@H]1CC[C@@]2(O)Cc1ccccc1 — lower, 0%
- C#C[C@]1(O)CC[C@H]2[C@@H]3CCc4cc(O)c(Br)cc4[C@H]3CC[C@@]21C — higher, 8.4%
- C[C@]12CC[C@@H]3c4ccc(OS(N)(=O)=O)cc4CC[C@H]3[C@@H]1C[C@H](CCCNC(=O)C1CCCN1C(=O)Cc1ccccc1)[C@@H]2O (stereo not given in full) — higher, 21.4%
- C[C@]12CC[C@@H]3c4ccccc4C(O)C[C@H]3[C@@H]1CC[C@@H]2O (stereo not given in full) — higher, 20%
- C[C@]12CC[C@@H]3c4ccc(NC(=O)O)cc4CC[C@H]3[C@@H]1CCC2=O — higher, 8.9%
- CCCCCCCN(C=O)[C@H]1CC[C@H]2[C@@H]3CCc4cc(OC)ccc4[C@H]3CC[C@]12C — lower, 3.5%
- C[C@]12CC[C@@H]3c4ccc(N)cc4CC[C@H]3[C@@H]1CCC2=O — higher, 16.2%
- C[C@]12CC[C@@H]3c4ccc(C(=O)O)cc4CC[C@H]3[C@@H]1CCC2=O — higher, 11.5%
- C[C@]12CC[C@@H]3c4ccc(OCCBr)cc4CC[C@H]3[C@@H]1CC[C@@H]2O — higher, 11.1%
- C[C@]12CC[C@@H]3c4ccc(S)cc4CC[C@H]3[C@@H]1CCC2=O — higher, 61.1 to 61.6%
- CCc1ccc2c(c1)CC[C@@H]1[C@@H]2CC[C@]2(C)C(=O)CC[C@@H]12 — higher, 42.8%
- CC(=O)c1ccc(C(=O)N2CCCC2C(=O)NCCCCCCCCCCC[C@@H]2Cc3cc(O)ccc3[C@H]3CC[C@]4(C)[C@@H](O)CC[C@H]4[C@H]23)cc1 (stereo not given in full) — higher, 22.1%
- CNS(=O)(=O)Oc1cc2c(cc1OS(=O)(=O)NC)[C@H]1CC[C@]3(C)C(=O)CC[C@H]3[C@@H]1CC2 — higher, 30.3%
- CCS(=O)(=O)Oc1ccc2c(c1)CC[C@@H]1[C@@H]2CC[C@]2(C)C(=O)CC[C@@H]12 — lower, 0.3%
- CCCCCCCN[C@H]1CC[C@H]2[C@@H]3CCc4ccc(OC)cc4[C@H]3CC[C@]12C — higher, 9.4%
- COc1cc2c(cc1O)CC[C@@H]1[C@@H]2CC[C@]2(C)C(=O)CC[C@@H]12 — higher, 13.2%
- C[C@]12CC[C@@H]3c4ccc(O)cc4CC[C@H]3[C@@H]1CC[C@@]21CCC(=O)O1 — higher, 13.9%
- COc1cc2c(cc1O)CC[C@@H]1[C@@H]2CC[C@]2(C)[C@@H](O)CC[C@@H]12 [2-METHOXYESTRADIOL] — lower, 4.4%
- O=c1cc(-c2ccccc2)oc2c1ccc1ccccc12 [ALPHA-NAPHTHOFLAVONE] — higher, 89.2%
- C[C@]12CC[C@@H]3c4ccc(OS(N)(=O)=O)cc4CC[C@H]3[C@@H]1CCC2=O [EMATE] — higher, 8.6%
